Assay results as given in patent EP1566447A1, “Glimepiride- and insulin-induced glycosylphosphatidylinositol-specific phospholipase C regulation” (priority 2004, dated 2005).

What was measured:
[1] = test system: GPI-PLC of hcDIGs from rat adipocytes; assay: adipocyte GPI-PLC assay (cleavage of AChE, TX-114 partitioning); type: biochemical; details: 1 mM; hcDIGs from rat adipocytes
Experimental: Biophys. […] Each reaction mixture was subjected to TX-114 partitioning (see below).
After incubation for 1 h on ice, the mixture was layered onto a cushion of 0.4 ml of 0.25 M sucrose and 25 mM Tris/HCl (pH 7.4) on ice.
Cleavage rate was calculated from the amount of hydrophilic AChE and aP activity recovered with the TX-114-depleted phase upon TX-114 partitioning.

rat adipocytes = assay: isoproterenol-induced lipolysis measured as release of NBD-FA; type: cell-based; details: 50 µM; Fig. 9 Panels A, B
Experimental: Electroporation was performed as described in "Müller, G. et al., (2000) Mol. Cell. Biol. 20: 4708-4723". Lipolysis was determined as release of glycerol or fluorescent NBD-FA from prelabeled and isoproterenol-stimulated adipocytes as described in "Müller, G. et al., (2003) Biochimie 85: 1245-1256". Gce1 was detected by photolabeling of solubilized plasma membranes or hc/IcDIGs (10-50 µg protein) with 8-N3-[^32P]cAMP and subsequent phosphorimaging as described in "Müller, G. et al., (1994) Biochemistry 33: 12149-12159". 5'-Nuc, aP and AChE activities were measured according to "Eliakim, R. et al., (1990) Biochim. Biophys. Acta […]". Protein was determined using the BCA protein determination kit from Pierce (Rockford, IL) and BSA as calibration standard. SDS-PAGE was performed using precast gels (Novex, San Diego, CA; 10 % Bis-Tris resolving gel, morpholinopropanesulfonic acid-SDS running buffer). Lumiimages were evaluated on a Lumilmager using Lumilmager software (Roche Diagnostics). Phosphor- and fluorescence images were processed and quantified using the Storm 860 Phosphorlmager system (Molecular Dynamics, Gelsenkirchen, Germany). Figures were constructed using the Adobe Photoshop software (Adobe Systems, Mountain View, CA). […]

[2] = test system: patients with type 2 diabetes; details: cited from earlier work

SMILES	inhibition % at 1 mM [1]	effect on the glimepiride-induced reduction of NBD-FA release (rat adipocytes)	activation of GPI-PLC (GPI-PLC; direct incubation of hcDIGs from untreated adipocytes, Fig. 4 Panel A)	stimulation of GPI-PLC activity (GPI-PLC; hcDIGs prepared from pretreated adipocytes, Fig. 4 Panel C, 20 µM)	hypoglycaemia occurred in patients ([2]; monotherapy, treated for ≤1 year)	effective dosage range ([2]; patients with type 2 diabetes)
CCCCCCCCCCCCP(=O)(OC)O[C@@H]1[C@H](O)[C@H](O)[C@@H](O)[C@H](O)[C@H]1O (stereo partly drawn) [GPI-2349, myo-inositol-1-O-dodecylphosphonic acid methylester]	27 ± 6%	–	–	–	–	–
CCC1=C(C)CN(C(=O)NCCc2ccc(S(=O)(=O)NC(=O)N[C@H]3CC[C@H](C)CC3)cc2)C1=O [Glimepiride, glimepiride]	–	completely abrogated	up to 4 fold	3 fold	10 to 20%	0.5 to 8 mg/day
